# Measurements from ChEMBL document CHEMBL1152912, “Protective effects of a benzoxazine derivative against oxidized LDL-induced apoptosis and the increases of integrin beta4, ROS, NF-kappaB and P53 in human umbilical vein endothelial cells” (Bioorg Med Chem Lett, 2009).
# The source made the active and inactive calls. The calls are words filed in the database; no cut-off is given here.
# Tests used:
# HUVEC [1] = experiment: Antiapoptotic activity against low density lipoprotein-induced apoptosis in HUVEC cells assessed as nuclear condensation after 24 hrs by acridin orange staining; format: functional, cell-based; conditions: Homo sapiens
# HUVEC [2] = experiment: Antiapoptotic activity against low density lipoprotein-induced apoptosis in HUVEC cells by Hoechst 33258 staining; format: functional, cell-based; conditions: Homo sapiens
# HUVEC [3] = experiment: Antiapoptotic activity against low density lipoprotein-induced apoptosis in HUVEC cells assessed as nuclear fragmentation after 24 hrs by acridin orange staining; format: functional, cell-based; conditions: Homo sapiens
# HUVEC [4] = experiment: Antiapoptotic activity against low density lipoprotein-induced apoptosis in HUVEC cells assessed as apoptotic cell after 24 hrs by TUNEL assay; format: functional, cell-based; conditions: Homo sapiens
# HUVEC [5] = experiment: Antiapoptotic activity against low density lipoprotein-induced apoptosis in HUVEC cells assessed as inhibition of integrin beta4 level at 50 uM by immunofluorescence technique; format: functional, cell-based; conditions: Homo sapiens
# HUVEC [6] = experiment: Antiapoptotic activity against low density lipoprotein-induced vascular apoptosis in HUVEC cells assessed as inhibition of ROS by lase scanning confocal microscope; format: functional, cell-based; conditions: Homo sapiens
# HUVEC [7] = experiment: Antiapoptotic activity against low density lipoprotein-induced vascular apoptosis in HUVEC cells assessed as modulation of NF-kappaB level by lase scanning confocal microscope; format: functional, cell-based; conditions: Homo sapiens
# HUVEC [8] = experiment: Antiapoptotic activity against low density lipoprotein-induced vascular apoptosis in HUVEC cells assessed as translocation of NF-kappaB across the nucleus by lase scanning confocal microscope; format: functional, cell-based; conditions: Homo sapiens
# HUVEC [9] = experiment: Antiapoptotic activity against low density lipoprotein-induced vascular apoptosis in HUVEC cells assessed as modulation of P53 level by lase scanning confocal microscope; format: functional, cell-based; conditions: Homo sapiens
# HUVEC [10] = experiment: Cytotoxicity against HUVEC cells assessed as reduction in low density lipoprotein-induced cell viability at 50 uM by MTT assay; format: cell-based; conditions: human
smiles,measurement,setting,value
Nc1ccc2c(c1)NC(CO)CO2 (stereo not given),Activity,HUVEC [1],Active
same,Activity,HUVEC [2],Dose-dependent effect
same,Activity,HUVEC [3],Active
same,Activity,HUVEC [4],Active
same,Activity,HUVEC [5],Active
same,Activity,HUVEC [6],Active
same,Activity,HUVEC [7],Active
same,Activity,HUVEC [8],Active
same,Activity,HUVEC [9],Active
same,Activity,HUVEC [10],Toxic
